Where two headings read alike, the source gives them in different places. One block for each compound: values may come before it.
How the values were obtained:
[1] = both, human, in vivo, po, 100 mg
[2] = mainly through active tubular secretion; cited from earlier work
[3] = single 600 mg dose of cyclosporine; cited from earlier work
clinical = details: both, human, in vivo, 100 mg; for AUC(0-inf): AUC0-∞; for CL renal: CLR; for half-life: t1/2
[4] = type: in vivo, human; details: atorvastatin 40 mg for five days, CGC/CGC, CGC/TTT
[5] = simvastatin 40 mg co-administered; cited from earlier work
[6] = simvastatin 80 mg; cited from earlier work
[7] = atorvastatin 80 mg; cited from earlier work

Compound: CC(C)c1c(C(=O)Nc2ccc(O)cc2)c(-c2ccccc2)c(-c2ccc(F)cc2)n1CC[C@@H](O)C[C@@H](O)CC(=O)O [4-hydroxyatorvastatin]
influence of ABCB1 diplotype on pharmacokinetic parameters [4]: not significantly affected

Compound: CC(C)c1c(C(=O)Nc2ccccc2O)c(-c2ccccc2)c(-c2ccc(F)cc2)n1CCC1CC(O)CC(=O)O1 (stereo not drawn) [2-hydroxyatorvastatin lactone]
influence of ABCB1 diplotype on pharmacokinetic parameters [4]: not significantly affected

Compound: N#C[C@@H]1C[C@@H]2C[C@@H]2N1C(=O)[C@@H](N)C12CC3CC(CC(O)(C3)C1)C2 [saxagliptin]
increase of AUC by simvastatin [5]: 12%

Compound: N#C[C@@H]1CCCN1C(=O)CNC12CC3CC(CC(O)(C3)C1)C2 [vildagliptin]
effect of simvastatin on multiple-dose pharmacokinetics [6]: did not alter

Compound: CC(C)c1c(C(=O)Nc2ccccc2O)c(-c2ccccc2)c(-c2ccc(F)cc2)n1CCC(O)CC(O)CC(=O)O (stereo not drawn) [2-hydroxyatorvastatin]
influence of ABCB1 diplotype on pharmacokinetic parameters [4]: not significantly affected

Compound: Cn1c(=O)cc(N2CCC[C@@H](N)C2)n(Cc2ccccc2C#N)c1=O [alogliptin]
effect of atorvastatin on multiple-dose pharmacokinetics [7]: did not alter

Second part, led by results:

Cmax [1]: 0.438 ± 0.152 µg/mL | AUC(0-inf) (clinical): 3.22 µg·h/mL | CL renal (clinical): 254 mL/min | Cmax (clinical): 0.399 µg/mL | half-life (clinical): 7.4 ± 2.5 h | AUC(0-t) (clinical; po, AUC0-24): 3.23 ± 1.22 µg·h/mL | AUC(0-inf) (clinical; po): 3.64 ± 1.44 µg·h/mL | CL renal (clinical; po): 254 ± 176 mL/min | Cmax (clinical; po): 0.454 ± 0.18 µg/mL | half-life (clinical; po): 7.3 ± 3 h
Compound: N[C@@H](CC(=O)N1CCn2c(nnc2C(F)(F)F)C1)Cc1cc(F)c(F)cc1F [Sitagliptin, sitagliptin]
drug excreted unchanged in the urine [2]: about 80% | effect of cyclosporine on Cmax [3]: modestly increased | effect of cyclosporine on overall plasma exposure [3]: did not have a significant effect

influence of ABCB1 diplotype on pharmacokinetic parameters [4]: did not differ significantly
Compound: CC(C)c1c(C(=O)Nc2ccccc2)c(-c2ccccc2)c(-c2ccc(F)cc2)n1CC[C@@H]1C[C@@H](O)CC(=O)O1 [Atorvastatin lactone, atorvastatin lactone]

influence of ABCB1 diplotype on pharmacokinetic parameters [4]: not significantly affected
Compound: CC(C)c1c(C(=O)Nc2ccc(O)cc2)c(-c2ccccc2)c(-c2ccc(F)cc2)n1CCC1CC(O)CC(=O)O1 (stereo not drawn) [4-hydroxyatorvastatin lactone]

— PMC3676426 (European journal of clinical pharmacology, 2013)
